According to ChEMBL document CHEMBL1122946, “Folate antagonists. 21. Synthesis and antimalarial properties of 2,4-diamino-6-(benzylamino)pyrido[3,2-d]pyrimidines” (1985):

Assays:
Mus musculus [1] = test: Mean survival time against trophozoite induced Plasmodium berghei in mice minus control was evaluated at a dose 640 mg/kg; 5 survived out of 5 animals at 60 days postinjection.; type: functional, organism-based; parameters: dose 640 mg/kg
Mus musculus [2] = test: Mean survival time against trophozoite induced Plasmodium berghei in mice minus control was evaluated at a dose 40 mg/kg; 5 survived out of 5 animals at 60 days postinjection.; type: functional, organism-based; parameters: dose 40 mg/kg
Mus musculus [3] = test: Mean survival time against trophozoite induced Plasmodium berghei in mice minus control was evaluated at a dose 320 mg/kg; 5 survived out of 5 animals at 60 days postinjection.; type: functional, organism-based; parameters: dose 320 mg/kg
Mus musculus [4] = test: Mean survival time against trophozoite induced Plasmodium berghei in mice minus control was evaluated at a dose 80 mg/kg; 5 survived out of 5 animals at 60 days postinjection.; type: functional, organism-based; parameters: dose 80 mg/kg
Mus musculus [5] = test: Mean survival time against trophozoite induced Plasmodium berghei in mice minus control was evaluated at a dose 20 mg/kg; 3 survived out of 5 animals at 60 days postinjection; type: functional, organism-based; parameters: dose 20 mg/kg
Mus musculus [6] = test: Mean survival time against trophozoite induced Plasmodium berghei in mice minus control was evaluated at a dose 160 mg/kg; 5 survived out of 5 animals at 60 days postinjection.; type: functional, organism-based; parameters: dose 160 mg/kg
Mus musculus [7] = test: Mean survival time against trophozoite induced Plasmodium berghei in mice minus control was evaluated at a dose 640 mg/kg.; type: functional
Mus musculus [8] = test: Mean survival time against trophozoite induced Plasmodium berghei in mice minus control was evaluated at a dose 160 mg/kg; 1 survived out of 5 animals at 60 days postinjection.; type: functional, organism-based; parameters: dose 160 mg/kg
Mus musculus [9] = test: Mean survival time against trophozoite induced Plasmodium berghei in mice minus control was evaluated at a dose 40 mg/kg; 8 survived out of 10 animals at 60 days postinjection.; type: functional, organism-based; parameters: dose 40 mg/kg
Mus musculus [10] = test: Mean survival time against trophozoite induced Plasmodium berghei in mice minus control was evaluated at a dose 20 mg/kg.; type: functional
Mus musculus [11] = test: Mean survival time against trophozoite induced Plasmodium berghei in mice minus control was evaluated at a dose 320 mg/kg.; type: functional
Mus musculus [12] = test: Mean survival time against trophozoite induced Plasmodium berghei in mice minus control was evaluated at a dose 80 mg/kg; 4 survived out of 5 animals at 60 days postinjection.; type: functional, organism-based; parameters: dose 80 mg/kg
Mus musculus [13] = test: Mean survival time against trophozoite induced Plasmodium berghei in mice minus control was evaluated at a dose 160 mg/kg.; type: functional
Mus musculus [14] = test: Mean survival time against trophozoite induced Plasmodium berghei in mice minus control was evaluated at a dose 640 mg/kg; 7 survived out of 10 animals at 60 days postinjection.; type: functional, organism-based; parameters: dose 640 mg/kg
Mus musculus [15] = test: Mean survival time against trophozoite induced Plasmodium berghei in mice minus control was evaluated at a dose 40 mg/kg.; type: functional
Mus musculus [16] = test: Mean survival time against trophozoite induced Plasmodium berghei in mice minus control was evaluated at a dose 80 mg/kg.; type: functional
Mus musculus [17] = test: Mean survival time against trophozoite induced Plasmodium berghei in mice minus control was evaluated at a dose 320 mg/kg; 2 toxic death and 3 survived occurred on days 2-5 after injection; type: functional, organism-based; parameters: dose 320 mg/kg
Mus musculus [18] = test: Mean survival time against trophozoite induced Plasmodium berghei in mice minus control was evaluated at a dose 40 mg/kg; 1 survived occurred on days 2-5 after injection; type: functional
Mus musculus [19] = test: Mean survival time against trophozoite induced Plasmodium berghei in mice minus control was evaluated at a dose 80 mg/kg; 2 survived occurred on days 2-5 after injection.; type: functional
Mus musculus [20] = test: Mean survival time against trophozoite induced Plasmodium berghei in mice minus control was evaluated at a dose 80 mg/kg; 2 survived occurred on days 2-5 after injection; type: functional, organism-based; parameters: dose 80 mg/kg
Mus musculus [21] = test: Mean survival time against trophozoite induced Plasmodium berghei in mice minus control was evaluated at a dose 10 mg/kg.; type: functional
Mus musculus [22] = test: Mean survival time against trophozoite induced Plasmodium berghei in mice minus control was evaluated at a dose 640 mg/kg; 5 toxic death occurred on days 2-5 after injection; type: functional, organism-based; parameters: dose 640 mg/kg
Mus musculus [23] = test: Mean survival time against trophozoite induced Plasmodium berghei in mice minus control was evaluated at a dose 160 mg/kg; 5 survived occurred on days 2-5 after injection; type: functional, organism-based; parameters: dose 160 mg/kg
Mus musculus [24] = test: Mean survival time against trophozoite induced Plasmodium berghei in mice minus control was evaluated at a dose 160 mg/kg; type: functional
Mus musculus [25] = test: Mean survival time against trophozoite induced Plasmodium berghei in mice minus control was evaluated at a dose 40 mg/kg; type: functional
Mus musculus [26] = test: Mean survival time against trophozoite induced Plasmodium berghei in mice minus control was evaluated at a dose 320 mg/kg; 2 cured and 3 toxic death; type: functional, organism-based; parameters: dose 320 mg/kg
Mus musculus [27] = test: Mean survival time against trophozoite induced Plasmodium berghei in mice minus control was evaluated at a dose 2.5 mg/kg.; type: functional
Mus musculus [28] = test: Mean survival time against trophozoite induced Plasmodium berghei in mice minus control was evaluated at a dose 1.25 mg/kg.; type: functional
Mus musculus [29] = test: Mean survival time against trophozoite induced Plasmodium berghei in mice minus control was evaluated at a dose 80 mg/kg; 3 cured at 60 days postinjection.; type: functional, organism-based; parameters: dose 80 mg/kg
Mus musculus [30] = test: Mean survival time against trophozoite induced Plasmodium berghei in mice minus control was evaluated at a dose 160 mg/kg; 5 cured at 60 days postinjection.; type: functional, organism-based; parameters: dose 160 mg/kg
Mus musculus [31] = test: Mean survival time against trophozoite induced Plasmodium berghei in mice minus control was evaluated at a dose 5 mg/kg.; type: functional
Mus musculus [32] = test: Mean survival time against trophozoite induced Plasmodium berghei in mice minus control was evaluated at a dose 40 mg/kg; 1 cured at 60 days postinjection.; type: functional, organism-based; parameters: dose 40 mg/kg
Mus musculus [33] = test: Mean survival time against trophozoite induced Plasmodium berghei in mice minus control was evaluated at a dose 640 mg/kg; 1 cured and 2 toxic death; type: functional, organism-based; parameters: dose 640 mg/kg

SMILES: CN(Cc1cccc(Cl)c1)c1ccc2nc(N)nc(N)c2n1
- Delta MST (Mus musculus [1]): Survivals 5/5
- Delta MST (Mus musculus [2]): Survivals 5/5
- Delta MST (Mus musculus [3]): Survivals 5/5
- Delta MST (Mus musculus [4]): Survivals 5/5
- Delta MST (Mus musculus [5]): Survivals 3/5
- Delta MST (Mus musculus [6]): Survivals 5/5

SMILES: CN(Cc1ccc(C(F)(F)F)cc1)c1ccc2nc(N)nc(N)c2n1
- Delta MST (Mus musculus [7]): 2.5 days
- Delta MST (Mus musculus [8]): Survivals 1/5
- Delta MST (Mus musculus [9]): Survivals 8/10
- Delta MST (Mus musculus [10]): 8.1 days
- Delta MST (Mus musculus [11]): 2.9 days
- Delta MST (Mus musculus [12]): Survivals 4/5

SMILES: Nc1nc(N)c2nc(NCc3ccc(Cl)c(Cl)c3)ccc2n1
- Delta MST (Mus musculus [13]): 12.4 days
- Delta MST (Mus musculus [14]): Survivals 7/10
- Delta MST (Mus musculus [15]): 1.8 days
- Delta MST (Mus musculus [10]): 0.5 days
- Delta MST (Mus musculus [11]): 15.3 days
- Delta MST (Mus musculus [16]): 4.9 days

SMILES: CC1(C)N=C(N)N=C(N)N1c1ccc(Cl)cc1.Cl [CHLORCYCLOGUANIL HYDROCHLORIDE]
- Delta MST (Mus musculus [17]): Survivals 3 Toxic Deaths 2
- Delta MST (Mus musculus [18]): 13.4 days
- Delta MST (Mus musculus [19]): 21.6 days
- Delta MST (Mus musculus [20]): Survivals 2
- Delta MST (Mus musculus [21]): 4.9 days
- Delta MST (Mus musculus [22]): Toxic Deaths 5
- Delta MST (Mus musculus [10]): 7.9 days
- Delta MST (Mus musculus [23]): Survivals 5

SMILES: CN(Cc1ccc(Cl)cc1)c1ccc2nc(N)nc(N)c2n1
- Delta MST (Mus musculus [7]): 1.3 days
- Delta MST (Mus musculus [24]): 1.1 days
- Delta MST (Mus musculus [25]): 1.1 days

SMILES: CC(c1ccc(Cl)c(Cl)c1)N(C)c1ccc2nc(N)nc(N)c2n1 (stereo not given)
- Delta MST (Mus musculus [7]): 3.9 days
- Delta MST (Mus musculus [13]): 2.3 days
- Delta MST (Mus musculus [15]): 1.7 days

SMILES: CCN(Cc1ccc(Cl)cc1)c1ccc2nc(N)nc(N)c2n1
- Delta MST (Mus musculus [7]): 1.1 days
- Delta MST (Mus musculus [13]): 0.9 days
- Delta MST (Mus musculus [15]): 0.9 days

SMILES: CCc1nc(N)nc(N)c1-c1ccc(Cl)cc1 [PYRIMETHAMINE]
- Delta MST (Mus musculus [26]): Survivals 2 Toxic deaths 3
- Delta MST (Mus musculus [27]): 4.7 days
- Delta MST (Mus musculus [28]): 3.1 days
- Delta MST (Mus musculus [21]): 6.1 days
- Delta MST (Mus musculus [29]): Survivals 3
- Delta MST (Mus musculus [30]): Survivals 5
- Delta MST (Mus musculus [31]): 5.3 days
- Delta MST (Mus musculus [10]): 7.7 days
- Delta MST (Mus musculus [32]): Survivals 1
- Delta MST (Mus musculus [33]): Survivals 1 Toxic Deaths 2
